Data reported in paper PMC8795383, “Docking-guided rational engineering of a macrolide glycosyltransferase glycodiversifies epothilone B” (Communications Biology, 2022).
Converted amounts (≈) assume the structure as drawn. Where two headings read alike, the source gives them in different places.

Experiments:
HepG2 cells [1] = assay: Immunofluorescence confocal imaging of tubulin; format: cell-based, human; conditions: HepG2, 24 h
Procedure: Freshly trypsinized HepG2 cells (1 × 10^4−1 × 10^5) were seeded in a 12-well plate and cultivated for 24 h with DMEM (Gibco, Thermo Fisher Scientific, Waltham, MA, USA). Cells were treated with EpoB and 1a at different concentrations (50 nM, 500 nM, and 5 μM) according to the IC50 values for 24 h. The supernatants were removed, and the cells were washed with PBS buffer 2–3 times. The cells were further fixed with 4% paraformaldehyde for 1 h and then permeabilized with 0.2% Triton X-100 (diluted in PBS buffer) for 10 min. Next, the cells were blocked with bovine serum albumin (BSA) for 30 min and incubated with a primary antibody against β-tubulin (1:50, diluted in 2% BSA, β-tubulin Rabbit Monoclonal Antibody, Beyotime Biotechnology) for 1 h at room temperature. After that, the cells were treated with Alexa Fluor 488 goat anti-rabbit IgG (H + L) (secondary antibody, 1:500, diluted in 2% BSA, Beyotime Biotechnology) for another 1 h. The supernatants were removed, the cells were washed, and the nuclei were labeled with DAPI for 10 min. Images were collected using an Olympus BX81 fluorescence microscope system (Olympus, Tokyo, Japan) and a confocal microscope (UltraVIEW®VoX).

[2] = tested on: hepatocyte cell line HL-7702; assay: MTT cytotoxicity assay; format: cell-based, human
Excerpt: (§1) NDP-glucose (UDPG, ADPG, TDPG, and GDPG), UDP-N-acetylglucosamine (UDP-GlcNAc), UDP-galactose (UDP-Gal), and UDP-glucuronic acid (UDP-GlcA) were purchased from Sigma-Aldrich (St. Louis, MO, USA). UDP-GlcNAz, UDP-GalNAz, UDP-GlcNTFA, UDP-GalNTFA, UDP-GalNAc, UDP-GalA, CMP-Neu5Ac, GDP-Fuc and GDP-Man were kindly provided by Professor Junqiang Fang[59]–[63]. Epothilone B was purchased from Zhejiang Hisun Pharmaceutical Co., Ltd. The human liver carcinoma cell line HepG2 and human hepatocyte cell line HL-7702 were purchased from Gaining (Gaining Bio. Co., Ltd, Shanghai, China). The cells were cultivated in T-25 flasks in a Thermo Scientific CO2 incubator in a humidified environment at 37°C and 5% CO2. HepG2 cells were preserved in DMEM (Gibco, Thermo Fisher Scientific, Waltham, MA, USA), while HL-7702 cells were preserved in RPMI-1640 (Gibco, Thermo Fisher Scientific, Waltham, MA, USA). All cultures contained 10% fetal calf serum and 1% penicillin C/streptomycin. All chemicals and reagents are of analytical grade.
(§2) By using the MTT colorimetric assay, the antitumor and cytotoxicity of EpoB and its glucosides were tested against the liver carcinoma cell line HepG2 and hepatocyte cell line HL-7702, respectively. The cells were seeded in a 96-well microtiter plate, and the wall-attached cells were treated with varying concentrations of drugs by dilution from 300 μM to 0.1 μM for EpoB glycosides (dissolved in DMSO). After 48 h of incubation with the test compounds, the cultures were treated with MTT (2 mg/mL) solution, and the cells were incubated for an additional 4 h at 37°C until a purple precipitate was visible. The purple formazan crystals were dissolved in DMSO, and the absorbance of each sample was measured at 492 nm using a microplate reader. All MTT assay experiments were performed in triplicate, and IC50 values were calculated using GraphPad Prism software (Version 6.01)[26].

HepG2 cells [3] = assay: Cellular intake assay (HPLC-DAD); format: in vitro ADME, human; conditions: HepG2, 5 μM, 1 h
Procedure: HepG2 cells (1 × 10^5−1 × 10^6 cells/mL) were cultivated overnight at 37°C and then treated with 5 μM EpoB and glycosides for 1 h. After removing the supernatant, the cells were sequentially rinsed with PBS buffer, trypsinized, and then washed with DMEM. Next, the cells were suspended in acetone, disrupted by ultrasonication, and centrifuged at 12000 rpm for 10 min to remove the debris. The resulting supernatants were dried with nitrogen and then redissolved in 200 μL of methanol. Finally, the compounds were analyzed by HPLC-DAD at 249 nm. Each experiment was conducted in three replicates. The concentrations of EpoB and its glycosides (cellular intake) were calculated based on the linear fitting regression equations of the HPLC peak areas.

physchem = format: physicochemical; conditions: water
Procedure: The water solubility of EpoB and its glycosides was determined using the minimum shake-flask solubility method[26],[75].

[4] = tested on: liver carcinoma cell line HepG2; assay: MTT antitumor assay; format: cell-based, human
Excerpt: as §1, §2

BsGT-1 M296A = target: T1, BsGT-1 M296A (Bacillus subtilis, UniProt O34539, M296A); assay: Glycosylation kinetics, BsGT-1 M296A mutant; format: biochemical; conditions: EpoB converted to 1i, sugar donor 2i
T1 construct: made in house; host or cells: E. coli BL21 (DE3)
Procedure: (§3) Kinetic parameters of BsGT-1 and its mutants for the glycosylation of epothilone B were measured in a reaction mixture (50 μl) containing 20 μg/mL protein, saturated sugar donors, different concentrations of epothilone B, and 50 mM Tris–HCl buffer (50 mM Tris–HCl, pH 7.5, 10 mM MgCl2) at 37°C for 10 min in triplicate. The kinetic values were determined by fitting the Michaelis–Menten curve to the data using the nonlinear regression method (Supplementary Figs. 13–14).

BsGT-1 I62A = target: T2, BsGT-1 I62A (Bacillus subtilis, UniProt O34539, I62A); format: biochemical; conditions: EpoB converted to 1a, sugar donor 2a
T2 construct: made in house; host or cells: E. coli BL21 (DE3)
Procedure: as §3

BsGT-1 F231S = target: T3, BsGT-1 F231S (Bacillus subtilis, UniProt O34539, F231S); assay: Glycosylation kinetics, BsGT-1 F231S mutant; format: biochemical; conditions: EpoB converted to 1h, sugar donor 2h
T3 construct: made in house; host or cells: E. coli BL21 (DE3)
Procedure: as §3

BsGT-1 Q318C = target: T4, BsGT-1 Q318C (Bacillus subtilis, UniProt O34539, Q318C); assay: Glycosylation kinetics, BsGT-1 Q318C mutant; format: biochemical; conditions: EpoB converted to 1e, sugar donor 2e
T4 construct: made in house; host or cells: E. coli BL21 (DE3)
Procedure: as §3

[5] = read-out: IC50 HL-7702, MTT, 48 h
[6] = read-out: IC50 HepG2, MTT, 48 h
[7] = 25 °C, thermodynamic from solid, read-out: Solubility
[8] = Homo sapiens, HepG2, 48 h, read-out: IC50 HepG2, MTT, 48 h
[9] = Homo sapiens, L02, 48 h, read-out: IC50 HL-7702, MTT, 48 h

For CC(=Cc1csc(C)n1)C1CC2OC2(C)CCCC(C)C(OC2OC(CO)C(O)C(O)C2O)C(C)C(=O)C(C)(C)C(O)CC(=O)O1 (stereo not drawn) [1a, EpoB 7-O-β-D glucoside], the “penetration into tumor cells and interaction with tubulin” value (HepG2 cells [1]) was “could penetrate into the tumor cells and interact with tubulin”, the IC50 [2, 5] was 27.6 ± 1.76 µM and the “cellular intake rate, lower than that of EpoB” value (HepG2 cells [3]) was 12 fold. The solubility (physchem; 25°C) was 1550 ± 90 µg/mL (≈ 2.31 mM) and the IC50 [4, 6] was 9.84 ± 0.57 µM.
In the case of CC(=Cc1csc(C)n1)C1CC2OC2(C)CCCC(C)C(OC2OC(CO)C(O)C(OC3OC(CO)C(O)C(O)C3O)C2O)C(C)C(=O)C(C)(C)C(O)CC(=O)O1 [1b, EpoB 7-O-β-D-glucosyl-(1 → 3)-β-D glucoside], the solubility (physchem; [7]) is reported as 86400 ± 1450 µg/mL (≈ 104 mM) and the IC50 [4, 8] is reported as > 100 µM.
Work on CC(=Cc1csc(C)n1)C1CC2OC2(C)CCCC(C)C(OC2OC(CO)C(O)C(O)C2OC2OC(CO)C(O)C(O)C2O)C(C)C(=O)C(C)(C)C(O)CC(=O)O1 [1c, EpoB 7-O-β-D-glucosyl-(1 → 2)-β-D glucoside] yielded an IC50 [2, 9] of 46.6 ± 0.48 µM, a solubility (physchem; [7]) of 83000 ± 1540 µg/mL (≈ 99.8 mM) and an IC50 [4, 8] of 34.2 ± 4.16 µM.
In the case of C/C(=C\c1csc(C)n1)[C@@H]1C[C@@H]2O[C@]2(C)CCC[C@H](C)[C@H](O[C@@H]2O[C@H](CO)[C@@H](O[C@@H]3O[C@H](CO)[C@@H](O)[C@H](O)[C@H]3O[C@@H]3O[C@H](CO)[C@@H](O)[C@H](O)[C@H]3O)[C@H](O)[C@H]2O)[C@@H](C)C(=O)C(C)(C)[C@@H](O)CC(=O)O1 [1d, epothilone B 7-O-β-D-glucosyl-(1 → 2)-β-D-glucosyl-(1 → 4)-β-D glucoside], the IC50 ([2]; MTT, 48 h, read-out: IC50 HL-7702) is reported as 42.8 ± 1.15 µM, the solubility (physchem; 25°C) is reported as 184830 ± 3500 µg/mL (≈ 186 mM) and the IC50 ([4]; MTT, 48 h, read-out: IC50 HepG2) is reported as 38.2 ± 2.41 µM.
CC(=O)NC1C(OC2C(C)CCCC3(C)OC3CC(C(C)=Cc3csc(C)n3)OC(=O)CC(O)C(C)(C)C(=O)C2C)OC(CO)C(O)C1O (stereo not shown) [1e] gave an IC50 [2, 9] of 31.1 ± 3.77 µM, a solubility (physchem; [7]) of 8220 ± 930 µg/mL (≈ 11.6 mM) and an IC50 [4, 8] of 19.8 ± 0.88 µM.
Work on CC(=Cc1csc(C)n1)C1CC2OC2(C)CCCC(C)C(OC2OC(CO)C(O)C(O)C2NC(=O)CN=[N+]=[N-])C(C)C(=O)C(C)(C)C(O)CC(=O)O1 (stereo not shown) [1h] yielded an IC50 [2, 9] of 40.4 ± 1.73 µM, a solubility (physchem; [7]) of 4340 ± 540 µg/mL (≈ 5.77 mM) and an IC50 [4, 8] of 30.2 ± 2.91 µM.
With CC(=Cc1csc(C)n1)C1CC2OC2(C)CCCC(C)C(OC2OC(CO)C(O)C(O)C2O)C(C)C(=O)C(C)(C)C(O)CC(=O)O1 (stereo not shown) [1i] the IC50 [2, 5] was 9.13 ± 1.02 µM, the “cellular intake rate, lower than that of EpoB” value (HepG2 cells [3]) was 8 fold and the solubility (physchem; 25°C) was 3370 ± 550 µg/mL (≈ 5.03 mM). The “activity higher than that of glucose-modified EpoB (1a)” value ([4]; HepG2, relative to 1a) was ~10 fold and the IC50 [4, 6] was 1.09 ± 0.26 µM.
Work on C/C(=C\c1csc(C)n1)[C@@H]1C[C@@H]2O[C@]2(C)CCC[C@H](C)[C@H](O)[C@@H](C)C(=O)C(C)(C)[C@@H](O)CC(=O)O1 [EpoB, epothilone B] yielded a Km (BsGT-1 M296A) of 147 ± 17 µM, a kcat (BsGT-1 M296A) of 0.0555 ± 0.003 s⁻¹ and a Km (BsGT-1 I62A) of 43.6 ± 4.16 µM. For the same molecule, the kcat (BsGT-1 I62A) was 0.3975 ± 0.023 s⁻¹, the Km (BsGT-1 F231S) was 127 ± 12.9 µM and the kcat (BsGT-1 F231S) was 0.0723 ± 0.0033 s⁻¹. The Km (BsGT-1 Q318C) was 95.9 ± 7.98 µM, the kcat (BsGT-1 Q318C) was 0.164 ± 0.00367 s⁻¹ and the IC50 [2, 9] was < 0.003 µM. For the same molecule, the IC50 [2, 5] was 0.00293 ± 0.00053 µM, the solubility (physchem; thermodynamic from solid, 25°C, read-out: Solubility) was 190 ± 30 µg/mL (≈ 0.374 mM) and the IC50 [4, 8] was < 0.002 µM. It also gave an IC50 [4, 6] of 0.00139 ± 0.0003 µM.
